From ChEMBL document CHEMBL1201862, “PubChem BioAssay data set” (2004) come the findings set out here.

One experiment deals with Beta Lactamase (Pseudomonas aeruginosa, UniProt Q932Y6). Briefly: beta-lactamase reporter inhibitor potency, dose response, artefact control for TLR9-MyD88 binding inhibitor project, BLA reporter cells, FRET fluorescence (AID 588341).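 Also: cell based assay in CHO-K1 cells stably expressing beta-lactamase.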 Type of experiment: cell-based.
Another experiment deals with INS1. Briefly: beta cell apoptosis inhibitors, cytokine rescue, dose response, luminescence, retest (AID 449756).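 Also: cell death triggered by IL-1 beta plus TNF-alpha plus IFN-gamma mixture; protective hits raise ATP signal compared with cytokine alone wells.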 Type of experiment: functional, cell-based. Conditions: Rattus norvegicus.
Experiment [1] can be described thus: enhancers of respiration in Yfh1-depleted yeast, dose response, Friedreich's ataxia, plus single-dose screen (AID 1465).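 Also: yeast depleted of Yfh1p frataxin homolog grown on glycerol needing respiration; WST-1 tetrazolium dye reduction as measure of cellular dehydrogenase metabolic activity.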 In kind it is functional.
For experiment [2], the target named is T1, Histone-lysine N-methyltransferase NSD2 (Homo sapiens, UniProt O96028).
T1 sequence (O96028 whole entry): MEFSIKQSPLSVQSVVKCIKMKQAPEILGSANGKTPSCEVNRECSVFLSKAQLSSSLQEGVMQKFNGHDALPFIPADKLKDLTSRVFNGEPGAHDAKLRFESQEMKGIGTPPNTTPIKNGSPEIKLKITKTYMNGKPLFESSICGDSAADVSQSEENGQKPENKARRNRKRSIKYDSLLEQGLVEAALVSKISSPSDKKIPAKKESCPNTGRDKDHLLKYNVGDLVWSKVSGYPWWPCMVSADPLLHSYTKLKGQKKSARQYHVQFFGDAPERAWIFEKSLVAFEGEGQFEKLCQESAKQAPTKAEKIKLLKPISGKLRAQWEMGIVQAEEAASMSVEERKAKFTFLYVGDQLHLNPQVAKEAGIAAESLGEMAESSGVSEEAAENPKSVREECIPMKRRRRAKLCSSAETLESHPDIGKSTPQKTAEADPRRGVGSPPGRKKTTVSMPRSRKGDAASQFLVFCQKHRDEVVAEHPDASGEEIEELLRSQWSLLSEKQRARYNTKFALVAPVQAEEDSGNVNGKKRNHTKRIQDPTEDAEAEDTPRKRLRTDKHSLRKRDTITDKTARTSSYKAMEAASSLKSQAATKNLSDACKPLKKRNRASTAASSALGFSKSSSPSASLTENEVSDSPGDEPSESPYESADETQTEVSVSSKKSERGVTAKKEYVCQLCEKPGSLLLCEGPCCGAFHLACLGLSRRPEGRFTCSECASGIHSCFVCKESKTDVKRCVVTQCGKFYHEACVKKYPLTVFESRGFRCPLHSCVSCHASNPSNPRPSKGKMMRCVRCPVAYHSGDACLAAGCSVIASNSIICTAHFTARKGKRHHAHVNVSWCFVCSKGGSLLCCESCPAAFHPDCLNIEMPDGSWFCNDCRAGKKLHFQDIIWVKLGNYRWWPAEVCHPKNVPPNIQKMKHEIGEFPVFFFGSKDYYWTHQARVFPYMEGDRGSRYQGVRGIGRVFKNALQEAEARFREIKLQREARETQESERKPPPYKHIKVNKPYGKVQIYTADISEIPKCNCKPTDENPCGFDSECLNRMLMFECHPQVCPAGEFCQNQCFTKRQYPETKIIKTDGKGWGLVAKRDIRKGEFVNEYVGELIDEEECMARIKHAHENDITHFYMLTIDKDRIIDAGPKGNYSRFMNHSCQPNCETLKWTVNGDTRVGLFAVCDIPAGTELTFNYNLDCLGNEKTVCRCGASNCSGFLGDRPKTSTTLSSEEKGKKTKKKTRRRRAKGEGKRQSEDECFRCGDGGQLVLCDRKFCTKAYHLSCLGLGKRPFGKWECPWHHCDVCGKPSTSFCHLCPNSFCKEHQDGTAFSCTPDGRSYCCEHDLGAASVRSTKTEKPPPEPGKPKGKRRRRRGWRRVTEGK
Type of experiment: biochemical.

Experiment [3] deals with T2, Sentrin-specific protease 6 (Homo sapiens, UniProt Q9GZR1).
T2 sequence (Q9GZR1 whole entry): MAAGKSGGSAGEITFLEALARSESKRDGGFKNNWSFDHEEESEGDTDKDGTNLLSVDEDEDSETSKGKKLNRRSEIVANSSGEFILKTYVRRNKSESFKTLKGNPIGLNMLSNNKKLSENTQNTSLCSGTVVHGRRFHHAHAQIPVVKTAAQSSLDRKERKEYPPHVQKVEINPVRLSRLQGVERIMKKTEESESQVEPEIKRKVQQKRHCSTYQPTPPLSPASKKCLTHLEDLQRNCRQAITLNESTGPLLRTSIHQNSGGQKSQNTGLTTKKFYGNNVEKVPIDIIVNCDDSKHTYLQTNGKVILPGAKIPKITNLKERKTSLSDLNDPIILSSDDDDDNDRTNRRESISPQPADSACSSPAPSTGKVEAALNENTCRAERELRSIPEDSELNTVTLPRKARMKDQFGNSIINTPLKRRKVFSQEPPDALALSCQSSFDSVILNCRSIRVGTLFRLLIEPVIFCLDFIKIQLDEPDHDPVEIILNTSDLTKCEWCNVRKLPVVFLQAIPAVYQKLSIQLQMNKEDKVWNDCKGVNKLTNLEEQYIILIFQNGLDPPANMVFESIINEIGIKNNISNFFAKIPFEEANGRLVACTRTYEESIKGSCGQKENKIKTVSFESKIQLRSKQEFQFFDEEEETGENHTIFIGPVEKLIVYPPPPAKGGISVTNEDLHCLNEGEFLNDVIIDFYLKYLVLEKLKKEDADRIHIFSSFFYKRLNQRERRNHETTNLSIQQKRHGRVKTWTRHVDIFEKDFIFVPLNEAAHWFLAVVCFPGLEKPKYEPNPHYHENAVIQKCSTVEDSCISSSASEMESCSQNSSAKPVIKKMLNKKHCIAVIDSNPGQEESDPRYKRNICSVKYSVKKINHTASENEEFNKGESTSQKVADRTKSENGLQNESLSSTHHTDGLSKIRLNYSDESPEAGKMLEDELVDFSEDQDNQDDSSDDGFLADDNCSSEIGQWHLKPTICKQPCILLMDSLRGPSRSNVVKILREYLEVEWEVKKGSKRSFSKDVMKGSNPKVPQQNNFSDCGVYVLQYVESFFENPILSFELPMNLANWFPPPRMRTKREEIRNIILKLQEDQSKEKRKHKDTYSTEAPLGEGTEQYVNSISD
Type of experiment: functional.

In experiment [4] the target is Induced myeloid leukemia cell differentiation protein Mcl-1 (Homo sapiens, UniProt Q07820). Type of experiment: functional.
The target in the next experiment is T3, Caspase-3 (Homo sapiens, UniProt P42574).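 Also: Dose-response selectivity test against caspase-3 for candidate inhibitors of sentrin-specific proteases (SENPs).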
T3 sequence (P42574 whole entry): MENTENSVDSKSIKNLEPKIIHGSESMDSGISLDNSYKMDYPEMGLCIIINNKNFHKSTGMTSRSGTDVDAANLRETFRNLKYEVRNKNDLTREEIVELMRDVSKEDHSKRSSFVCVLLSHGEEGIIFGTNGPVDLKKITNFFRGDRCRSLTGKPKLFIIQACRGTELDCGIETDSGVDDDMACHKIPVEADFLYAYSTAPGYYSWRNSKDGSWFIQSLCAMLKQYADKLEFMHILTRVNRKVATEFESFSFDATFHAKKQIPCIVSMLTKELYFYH
In kind it is functional.

A short description of the next experiment: cells. Type of experiment: functional, cell-based.

The source made the active and inactive calls.

Chain of Beta Lactamase (Q932Y6 whole entry): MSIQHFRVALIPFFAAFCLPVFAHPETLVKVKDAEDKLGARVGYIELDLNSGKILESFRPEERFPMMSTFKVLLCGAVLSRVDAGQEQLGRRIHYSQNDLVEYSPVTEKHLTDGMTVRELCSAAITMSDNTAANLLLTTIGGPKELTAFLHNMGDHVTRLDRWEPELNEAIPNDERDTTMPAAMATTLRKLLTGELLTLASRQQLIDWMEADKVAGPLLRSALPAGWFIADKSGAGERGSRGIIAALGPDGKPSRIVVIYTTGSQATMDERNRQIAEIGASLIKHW
Chain of Induced myeloid leukemia cell differentiation protein Mcl-1 (Q07820 whole entry): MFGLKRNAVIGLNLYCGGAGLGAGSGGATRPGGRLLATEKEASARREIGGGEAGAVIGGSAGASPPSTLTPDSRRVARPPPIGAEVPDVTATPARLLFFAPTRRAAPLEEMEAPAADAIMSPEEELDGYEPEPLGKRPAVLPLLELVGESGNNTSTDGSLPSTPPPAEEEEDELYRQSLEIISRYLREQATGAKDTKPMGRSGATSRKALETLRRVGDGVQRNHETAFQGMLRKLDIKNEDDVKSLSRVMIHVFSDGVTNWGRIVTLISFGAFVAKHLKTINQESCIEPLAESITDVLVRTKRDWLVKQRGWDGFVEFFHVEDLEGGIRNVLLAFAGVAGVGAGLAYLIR

On to `CCc1ccc(Nc2n[n+](-c3ccccc3)c(-c3c(Cl)cccc3Cl)s2)cc1`, for which the IC50 at Beta Lactamase was 3.12 µM (active). Besides, the AC50 in the experiment with INS1 is 3.65 µM (active).

For `CCOC(=O)c1c(C)[nH]c2c1-c1ccccc1C(=O)C2=O`, in experiment [1], the EC50 was > 100 µM (active). Moreover, in experiment [2], the AC50 was 1.33 µM (active).

Regarding `COc1ccc2c(c1)CCC(/C=N/c1ccc3c(c1)OCO3)=C2O`, the IC50 in experiment [3] is 8.46 µM (active); in experiment [4], 16.7 µM (not active); on Caspase-3, 65.5 µM (active).

In the case of `CC(=O)NC(c1ccc2ccccc2c1)c1ccc2cccnc2c1O` (stereo unspecified), the EC50 in the experiment “cells” is 7.14 µM (active).

Turning to `CCOC(=O)c1c(C)oc2c1c(/C=N/CCC(=O)O)c(O)c1ccccc12`, in experiment [2], the AC50 was 1.87 µM (active).

For the compound `O=C(c1ccccc1)c1coc2c1C(=O)c1ccccc1C2=O`, the IC50 in experiment [3] was 4.61 µM (active); on Caspase-3, 25.7 µM (active).

For orientation: IC50 means the concentration that inhibits the measured activity by half. One may read the AC50 as the concentration giving half of the maximal activity seen. One may read the EC50 as the midpoint of the concentration-response curve.
